Where two headings read alike, the source gives them in different places.
System: NLRP3 inflammasome pathway
Assay: NLRP3 inflammasome pathway activation assay, IL-1β release (HTRF) in human monocyte-like cells stimulated with MSU or Nigericin
Assay type: cell-based
Description: The following assays were used to determine the inhibitory activity of test compounds on the NLRP3 inflammasome pathway using common stimuli Nigericin (Invivogen) or monosodium urate crystals (MSU) (Invivogen).
Human monocyte-like cells were cultured in RPMI-1640 Glutamax medium supplemented with 10% heat inactivated FCS and 50 U/ml penicillin-streptomycin (Life Technologies).
Human monocyte-like cells were seeded at 75000 per well in a 96-well plate and were differentiated overnight into macrophages with 10 ng/ml PMA (Phorbol Myristate Acetate). The following day, medium containing 10 ng/ml LPS (Lipopolysaccharide) were added. After 3 hours of LPS priming, concentrations of test compound in the range from 100 μM to 6 nM were added 30 min prior to NLRP3 inflammasome pathway stimulation with Nigericin 3.75 μM or MSU 200 μg/ml for 3 h.
For IL-1β quantification, supernatants were analyzed using HTRF kit according to the manufacturer's instructions (Cisbio 62HIL1BPEH). Briefly, in a 384-well ProxiPlate™ microplate, 8 μl of sample was mixed, with 4 μl of Anti-IL1β Cryptate antibody (40×) and Anti-IL1β XL antibody (40×). Then, incubated overnight at RT. Reading was done using an EnVision Reader (PerkinElmer).
IC50 (concentration corresponding to 50% inhibition) were determined using GraphPad Prism 8.

[1] = Homo sapiens, 3 h, IL-1β release, PMA-differentiated, LPS-primed cells, MSU 200 μg/ml for 3 h, read-out: IC50 Human monocyte-like cells MSU
[2] = Homo sapiens, 3 h, read-out: IC50 Human monocyte-like cells Nigericin (μM)
[3] = IL-1β release, PMA-differentiated, LPS-primed cells, MSU 200 μg/ml for 3 h, read-out: IC50 Human monocyte-like cells MSU

Structure (SMILES)	IC50 [1] [µM]	also measured
CCOC(=O)C1(c2ccon2)CN=C(Nc2c(-c3ccnc(OC)c3)cc(F)cc2C(C)C)O1 (racemic) [Example 1, ethyl 2-{[4-fluoro-2-(2-methoxypyridin-4-yl)-6-(propan-2-yl)phenyl]amino}-5-(1,2-oxazol-3-yl)-4,5-dihydro-1,3-oxazole-5-carboxylate]	< 1	–
COc1cc(-c2cc(F)cc(C(C)C)c2NC2=NCC(C(=O)O)(c3ccon3)O2)ccn1 (stereo not shown) [Example 10, 2-{[4-fluoro-2-(2-methoxypyridin-4-yl)-6-(propan-2-yl)phenyl]amino}-5-(1,2-oxazol-3-yl)-4,5-dihydro-1,3-oxazole-5-carboxylic acid]	< 1	–
COc1cc(-c2cc(F)cc(C(C)C)c2NC2=NCC(C(=O)O)(c3ccon3)O2)ccn1 (single isomer, unassigned) [Example 11, 2-{[4-fluoro-2-(2-methoxypyridin-4-yl)-6-(propan-2-yl)phenyl]amino}-5-(1,2-oxazol-3-yl)-4,5-dihydro-1,3-oxazole-5-carboxylic acid]	< 1	IC50 [2]: 1 to 10 µM
COc1cc(-c2ccc3c(c2NC2=NCC(C(=O)O)(c4ccon4)O2)CCO3)ccn1 (stereo not shown) [Example 24, 5-(isoxazol-3-yl)-2-((5-(2-methoxypyridin-4-yl)-2,3-dihydrobenzofuran-4-yl)amino)-4,5-dihydrooxazole-5-carboxylic acid]	1 to 10	–
CCOC(=O)C1(c2ccon2)CN=C(Nc2c3c(c(C)c4c2CCC4)CCC3)O1 (racemic) [Example 7, ethyl 5-(isoxazol-3-yl)-2-((8-methyl-1,2,3,5,6,7-hexahydro-s-indacen-4-yl)amino)-4,5-dihydrooxazole-5-carboxylate]	< 1	–
CCOC(=O)C1(c2ccon2)CN=C(Nc2c(-c3ccnc(OC)c3)ccc3c2CCO3)O1 (racemic) [Example 17, ethyl 5-(isoxazol-3-yl)-2-((5-(2-methoxypyridin-4-yl)-2,3-dihydrobenzofuran-4-yl)amino)-4,5-dihydrooxazole-5-carboxylate]	< 1	–
COc1cc(-c2ccc3c(c2NC2=NCC(C(=O)O)(c4ccon4)O2)CCC3)ccn1 (stereo not shown) [Example 13, 2-{[5-(2-methoxypyridin-4-yl)-2,3-dihydro-1H-inden-4-yl]amino}-5-(1,2-oxazol-3-yl)-4,5-dihydro-1,3-oxazole-5-carboxylic acid]	< 1	IC50 [2]: 10 to 30 µM
CCOC(=O)C1(c2ccon2)CN=C(Nc2c3c(c(-c4ccccc4)c4c2CCC4)CCC3)O1 (single isomer, unassigned) [Example 16, ethyl 5-(isoxazol-3-yl)-2-((8-phenyl-1,2,3,5,6,7-hexahydro-s-indacen-4-yl)amino)-4,5-dihydrooxazole-5-carboxylate]	–	IC50 [3]: 10 to 30 µM; IC50 (read-out: IC50 Human monocyte-like cells Nigericin, IL-1β release, PMA-differentiated, LPS-primed cells, Nigericin 3.75 μM for 3 h): 1 to 10 µM
Cc1c2c(c(NC3=NCC(C(=O)O)(c4ccon4)O3)c3c1CCC3)CCC2 (stereo not shown) [Example 14, 2-[(8-methyl-1,2,3,5,6,7-hexahydro-s-indacen-4-yl)amino]-5-(1,2-oxazol-3-yl)-4,5-dihydro-1,3-oxazole-5-carboxylic acid]	1 to 10	–
CCOC(=O)C1(c2ccon2)CN=C(Nc2c3c(c(-c4ccccc4)c4c2CCC4)CCC3)O1 (single isomer, unassigned) [Example 9, ethyl 5-(isoxazol-3-yl)-2-((8-phenyl-1,2,3,5,6,7-hexahydro-s-indacen-4-yl)amino)-4,5-dihydrooxazole-5-carboxylate]	–	IC50 [2]: 1 to 10 µM; IC50 [3]: < 1 µM
CC(C)c1cc(F)cc(-c2ccncc2)c1NC1=NCC(C(=O)O)(c2ccon2)O1 (stereo not shown) [Example 25, 2-((4-fluoro-2-isopropyl-6-(pyridin-4-yl)phenyl)amino)-5-(isoxazol-3-yl)-4,5-dihydrooxazole-5-carboxylic acid]	1 to 10	–
CCOC(=O)C1(c2ccon2)CN=C(Nc2c(-c3ccncc3)cc(F)cc2C(C)C)O1 (racemic) [Example 18, ethyl 2-((4-fluoro-2-isopropyl-6-(pyridin-4-yl)phenyl)amino)-5-(isoxazol-3-yl)-4,5-dihydrooxazole-5-carboxylate]	< 1	–
COc1cc(-c2cc(F)c3c(c2NC2=NCC(C(=O)O)(c4ccon4)O2)CCC3)ccn1 (stereo not shown) [Example 26, 2-((7-fluoro-5-(2-methoxypyridin-4-yl)-2,3-dihydro-1H-inden-4-yl)amino)-5-(isoxazol-3-yl)-4,5-dihydrooxazole-5-carboxylic acid]	1 to 10	–
COc1cc(-c2ccc3c(c2NC2=NCC(C(=O)O)(c4ccon4)O2)CCC3)ccn1 (racemic) [Example 12, 2-{[5-(2-methoxypyridin-4-yl)-2,3-dihydro-1H-inden-4-yl]amino}-5-(1,2-oxazol-3-yl)-4,5-dihydro-1,3-oxazole-5-carboxylic acid]	1 to 10	–
CCOC(=O)C1(c2ccon2)CN=C(Nc2c(C(C)C)cc(F)cc2C(C)C)O1 (racemic) [Example 23, ethyl 2-((4-fluoro-2,6-diisopropylphenyl)amino)-5-(isoxazol-3-yl)-4,5-dihydrooxazole-5-carboxylate]	1 to 10	–
CCOC(=O)C1(c2ccon2)CN=C(Nc2c(-c3ccnc(OC)c3)ccc3c2CCC3)O1 (racemic) [Example 4, ethyl 2-{[5-(2-methoxypyridin-4-yl)-2,3-dihydro-1H-inden-4-yl]amino}-5-(1,2-oxazol-3-yl)-4,5-dihydro-1,3-oxazole-5-carboxylate]	< 1	–
CCOC(=O)C1(c2ccon2)CN=C(Nc2c(-c3ccnc(OC)c3)cc(F)cc2C(C)C)O1 (single isomer, unassigned) [Example 2, ethyl 2-{[4-fluoro-2-(2-methoxypyridin-4-yl)-6-(propan-2-yl)phenyl]amino}-5-(1,2-oxazol-3-yl)-4,5-dihydro-1,3-oxazole-5-carboxylate]	< 1	–
O=C(O)C1(c2cnoc2)CN=C(Nc2c3c(c(-c4ccccc4)c4c2CCC4)CCC3)O1 (stereo not shown) [Example 28, lithium 5-(isoxazol-4-yl)-2-((8-phenyl-1,2,3,5,6,7-hexahydro-s-indacen-4-yl)amino)-4,5-dihydrooxazole-5-carboxylate]	–	IC50 (Homo sapiens, 3 h, read-out: IC50 Human monocyte-like cells MSU (μM)): 10 to 30 µM; IC50 [2]: 10 to 30 µM
COc1cc(-c2c(C)cc3c(c2NC2=NCC(C(=O)O)(c4ccon4)O2)CCC3)ccn1 (stereo not shown) [Example 27, 5-(isoxazol-3-yl)-2-((5-(2-methoxypyridin-4-yl)-6-methyl-2,3-dihydro-1H-inden-4-yl)amino)-4,5-dihydrooxazole-5-carboxylic acid]	< 1	IC50 [2]: 1 to 10 µM
CCOC(=O)C1(c2ccon2)CN=C(Nc2c3c(cc(C)c2-c2ccnc(OC)c2)CCC3)O1 (racemic) [Example 20, ethyl 5-(isoxazol-3-yl)-2-((5-(2-methoxypyridin-4-yl)-6-methyl-2,3-dihydro-1H-inden-4-yl)amino)-4,5-dihydrooxazole-5-carboxylate]	< 1	–
CCOC(=O)C1(c2ccon2)CN=C(Nc2c3c(c(C(F)(F)F)c4c2CCC4)CCC3)O1 (racemic) [Example 21, ethyl 5-(isoxazol-3-yl)-2-((8-(trifluoromethyl)-1,2,3,5,6,7-hexahydro-s-indacen-4-yl)amino)-4,5-dihydrooxazole-5-carboxylate]	1 to 10	IC50 [2]: < 1 µM
Cc1c2c(c(NC3=NCC(C(=O)O)(c4ccon4)O3)c3c1CCC3)CCC2 (single isomer, unassigned) [Example 15, 2-[(8-methyl-1,2,3,5,6,7-hexahydro-s-indacen-4-yl)amino]-5-(1,2-oxazol-3-yl)-4,5-dihydro-1,3-oxazole-5-carboxylic acid]	1 to 10	–
CCOC(=O)C1(c2ccon2)CN=C(Nc2c(-c3ccnc(OC)c3)cc(F)c3c2CCC3)O1 (racemic) [Example 19, ethyl 2-((7-fluoro-5-(2-methoxypyridin-4-yl)-2,3-dihydro-1H-inden-4-yl)amino)-5-(isoxazol-3-yl)-4,5-dihydrooxazole-5-carboxylate]	< 1	–
CCOC(=O)C1(c2ccon2)CN=C(Nc2c(-c3ccnc(OC)c3)cc(F)cc2C(C)C)O1 (single isomer, unassigned) [Example 3, ethyl 2-{[4-fluoro-2-(2-methoxypyridin-4-yl)-6-(propan-2-yl)phenyl]amino}-5-(1,2-oxazol-3-yl)-4,5-dihydro-1,3-oxazole-5-carboxylate]	–	IC50 [3]: 1 to 10 µM

From patent US20250109126A1, “DIHYDRO-OXAZOL DERIVATIVE COMPOUNDS” (AC IMMUNE SA, priority 2021, published 2025)
